The results in this text go back to ChEMBL document CHEMBL4725372, “Rational Design of Suprastat: A Novel Selective Histone Deacetylase 6 Inhibitor with the Ability to Potentiate Immunotherapy in Melanoma Models” (J Med Chem, 2020).

Each structure is given as a SMILES string. The source made the active and inactive calls. The rule behind the calls is not given here.

The subject of experiment [1] is Mus musculus. Description: Immunomodulatory activity in C57BL/6 mouse harboring mouse SM1 cells assessed as effect on CD4+ T cells at 25 mg/kg, ip dosed 5 days per week before starting 15 mg/kg, ip anti-PD1 immune checkpoint blockade therapy by flow cytometry. In kind it is functional, organism-based. The following applies: time 5.0 day/week. In general terms: Flow cytometry measures light scatter and fluorescence of single cells or particles in a stream.

In experiment [2] the test system is Mus musculus. Description: Immunomodulatory activity in C57BL/6 mouse harboring mouse SM1 cells assessed as increase in CD8+ effector T-cells and effector memory cells at 25 mg/kg, ip dosed 5 days per week before starting 15 mg/kg, ip anti-PD1 immune checkpoint blockade therapy by flow cytometry. In kind it is functional, organism-based. The following applies: time 5.0 day/week.

Experiment [3] concerns the target T1, Protein deacetylase HDAC6 (Mus musculus) (UniProt Q9Z2V5).
T1 sequence (whole entry): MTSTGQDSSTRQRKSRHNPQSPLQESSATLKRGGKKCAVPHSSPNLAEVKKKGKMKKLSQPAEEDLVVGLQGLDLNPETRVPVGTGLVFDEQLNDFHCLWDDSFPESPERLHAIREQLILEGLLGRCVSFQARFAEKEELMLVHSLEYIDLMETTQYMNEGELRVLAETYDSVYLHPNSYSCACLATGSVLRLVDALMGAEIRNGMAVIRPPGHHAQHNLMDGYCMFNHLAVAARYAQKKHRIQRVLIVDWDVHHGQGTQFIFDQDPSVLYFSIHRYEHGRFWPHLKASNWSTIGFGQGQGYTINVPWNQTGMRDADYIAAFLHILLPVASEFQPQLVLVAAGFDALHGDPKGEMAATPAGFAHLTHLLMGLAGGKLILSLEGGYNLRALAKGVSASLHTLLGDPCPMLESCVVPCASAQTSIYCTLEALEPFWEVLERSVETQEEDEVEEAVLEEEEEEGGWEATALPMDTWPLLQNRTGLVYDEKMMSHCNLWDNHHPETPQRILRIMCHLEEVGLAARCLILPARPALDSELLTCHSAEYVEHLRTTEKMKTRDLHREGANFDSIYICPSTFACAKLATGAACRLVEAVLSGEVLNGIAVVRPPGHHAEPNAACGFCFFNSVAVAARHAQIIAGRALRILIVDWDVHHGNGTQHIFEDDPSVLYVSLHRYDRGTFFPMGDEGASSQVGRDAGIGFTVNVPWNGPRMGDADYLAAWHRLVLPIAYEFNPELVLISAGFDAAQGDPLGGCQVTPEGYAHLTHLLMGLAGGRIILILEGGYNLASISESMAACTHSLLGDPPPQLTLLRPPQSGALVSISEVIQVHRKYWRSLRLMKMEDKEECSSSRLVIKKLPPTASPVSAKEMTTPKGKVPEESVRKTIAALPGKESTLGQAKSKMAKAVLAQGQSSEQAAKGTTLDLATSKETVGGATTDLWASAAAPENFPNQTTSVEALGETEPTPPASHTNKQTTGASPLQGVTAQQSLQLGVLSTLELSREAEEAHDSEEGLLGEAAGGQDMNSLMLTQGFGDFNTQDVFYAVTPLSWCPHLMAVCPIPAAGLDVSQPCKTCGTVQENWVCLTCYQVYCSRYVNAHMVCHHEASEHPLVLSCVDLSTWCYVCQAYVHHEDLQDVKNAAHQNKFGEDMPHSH
Description: Inhibition of human HDAC6 in mouse RAW264.7 cells assessed as increase in acetylated alpha-tubulin levels at 1 to 10 uM by immunoblot analysis. Type of experiment: cell-based. The following applies: Macrophage, dose microM 1-10. Background: In western blotting, separated proteins are transferred to a membrane and probed.

Experiment [4] concerns Mus musculus. Description: Immunomodulatory activity in C57BL/6 mouse harboring mouse SM1 cells assessed as reduction in F4/80+ CD206+ pro-tumor M2 macrophages at 25 mg/kg, ip dosed 5 days per week by flow cytometry. Type of experiment: functional, organism-based. The note with it: time 5.0 day/week.
The subject of experiment [5] is Mus musculus. Description: Immunomodulatory activity in C57BL/6 mouse harboring mouse SM1 cells assessed as reduction in natural killer T cells at 25 mg/kg, ip dosed 5 days per week before starting 15 mg/kg, ip anti-PD1 immune checkpoint blockade therapy by flow cytometry. Type of experiment: functional, organism-based. The following applies: time 5.0 day/week.
Experiment [6] relates to Mus musculus. Description: Immunomodulatory activity in C57BL/6 mouse harboring mouse SM1 cells assessed as increase in natural killer cells at 25 mg/kg, ip dosed 5 days per week before starting 15 mg/kg, ip anti-PD1 immune checkpoint blockade therapy by flow cytometry. In kind it is functional, organism-based. The following applies: time 5.0 day/week.
Another experiment relates to SM1. Description: Cytotoxicity in mouse SM1 cells assessed as reduction in cell viability up to 25 uM. The note with it: dose microM <=25. In kind it is functional, cell-based.
Experiment [7] concerns the target T2, Protein deacetylase HDAC6 (Homo sapiens) (UniProt Q9UBN7).
T2 sequence (whole entry): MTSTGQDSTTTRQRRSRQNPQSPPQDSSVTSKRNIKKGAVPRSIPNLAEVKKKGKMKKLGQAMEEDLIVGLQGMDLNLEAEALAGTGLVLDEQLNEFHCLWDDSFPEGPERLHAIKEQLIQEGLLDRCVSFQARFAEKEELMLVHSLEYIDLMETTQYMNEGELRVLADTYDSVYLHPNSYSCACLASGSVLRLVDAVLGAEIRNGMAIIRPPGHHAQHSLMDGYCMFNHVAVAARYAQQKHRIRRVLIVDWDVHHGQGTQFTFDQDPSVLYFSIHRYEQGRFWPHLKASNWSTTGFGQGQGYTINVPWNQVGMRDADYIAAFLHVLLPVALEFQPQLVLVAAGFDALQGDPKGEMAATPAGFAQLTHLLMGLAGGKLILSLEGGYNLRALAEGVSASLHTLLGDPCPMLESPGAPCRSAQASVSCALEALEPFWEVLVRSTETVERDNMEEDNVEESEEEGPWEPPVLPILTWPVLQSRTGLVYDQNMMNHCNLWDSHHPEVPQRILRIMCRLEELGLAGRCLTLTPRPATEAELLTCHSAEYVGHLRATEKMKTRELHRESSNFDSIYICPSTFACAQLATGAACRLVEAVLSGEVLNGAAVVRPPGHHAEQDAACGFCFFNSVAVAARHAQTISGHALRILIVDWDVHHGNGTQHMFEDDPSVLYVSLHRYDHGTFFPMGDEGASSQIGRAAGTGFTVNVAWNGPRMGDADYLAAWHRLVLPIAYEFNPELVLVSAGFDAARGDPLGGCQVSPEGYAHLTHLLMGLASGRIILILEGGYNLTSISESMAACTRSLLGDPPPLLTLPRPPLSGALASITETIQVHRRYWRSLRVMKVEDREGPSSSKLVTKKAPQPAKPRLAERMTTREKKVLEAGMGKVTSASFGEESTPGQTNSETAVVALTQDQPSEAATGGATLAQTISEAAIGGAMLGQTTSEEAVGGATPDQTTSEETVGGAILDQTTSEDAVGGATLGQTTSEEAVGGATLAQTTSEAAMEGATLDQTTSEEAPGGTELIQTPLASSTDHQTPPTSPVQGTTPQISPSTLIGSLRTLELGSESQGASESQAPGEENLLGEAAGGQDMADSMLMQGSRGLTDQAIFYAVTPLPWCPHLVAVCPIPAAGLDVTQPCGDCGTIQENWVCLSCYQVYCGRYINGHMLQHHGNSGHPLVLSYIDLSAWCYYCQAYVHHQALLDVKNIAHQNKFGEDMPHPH
Description: Inhibition of human HDAC6 in human WM164 cells assessed as decrease in STAT3 Y705 phosphorylation at 5 uM pre-incubated before IL6 stimulation for 20 mins by immunoblot analysis. Type of experiment: cell-based.

With `NCc1ccc(NC(=O)N(CCCCO)Cc2ccc(C(=O)NO)cc2)cc1`, the outcome in the experiment on Mus musculus [1] and in the experiment on SM1 was inactive. Besides, the outcome with Mus musculus [2], in the experiment with Mus musculus [4], with Mus musculus [5] and in the experiment with Mus musculus [6] was Active. Also, in experiment [3], the inhibition entry is “Dose-dependent effect”. In addition, the inhibition result in experiment [7] is “Active”.
